One data set deals with caspase-3. The experiment in a line: Caspase-3 level in serum of testicular I/R rats (ELISA). The class given is in vivo. Particulars: mean ± S.E.M, n=6. As for the experimental part:
(§1) This section describes the methods used in the investigation of the antiapoptotic effect of the novel compounds 6a–g then supported by further histological and molecular docking studies. The antiapoptotic effect of 6a–g was evaluated through evaluation of decreasing tissue damage induced by I/R in the testis of rats in a dose equivalent to 30 mg N-acetylcysteine (NAC) as an antiapoptotic reference. The rats were subdivided into sham, I/R, NAC and treated with tested compounds groups, each group comprises of 6 rats (weighing 140–150 g). The targeted compounds 6a–g were administrated intra-peritoneal (i.p.) an hour before ischemia, which lasted for (0.5 h) then reperfusion (1 h) followed by cutting the organ (Figure 5). Different biomarkers concentrations were measured in serum to detect testis injury due to ischemia/reperfusion (I/R).
[…], implicating a potential role in drug screening efforts. Therefore, we studied the mechanism of the caspase-3 inhibition activity. Caspase-3 was assayed in the serum of rats treated with 6a–g in comparison with sham and the NAC treated group, as shown in Table S5 (Supplementary Materials).
(§2) TNF-α was measured by ELISA kit (Elabscience, Houston, TX, USA). Caspase-3 was measured by ELISA kit Cusabio, Houston, TX, USA (See Supplementary Materials). Testosterone concentration in testicular samples was determined by the ELISA kit (“DRG”, Marburg, Germany) (See Supplementary Materials).
Background: ELISA stands for enzyme-linked immunosorbent assay.

For data set [1], the system named is testis of I/R rats. The data set is described as follows: TNFα in testis of I/R rats (ELISA). The class given is in vivo. The settings on record: i.p. 1 h before ischemia, dose equivalent to 30 mg NAC, mean ± S.E.M, n=6. On the procedure:
as §1
(§3) It was reported that excessive apoptosis in the testis could damage the Leydig cells and apparent decline in serum testosterone levels. Furthermore, excessive apoptosis of Leydig cells results in decreased testosterone. The assays of the apoptotic biomarkers (testicular testosterone and TNFα) were done in comparison with the sham and NAC treated group and the results were outlined in Table S4 (Supplementary Materials).
as §2

Data set [2] concerns testis of I/R rats. The experiment in a line: Testicular TAC in testis of I/R rats. The class given is in vivo. The settings on record: i.p. 1 h before ischemia, dose equivalent to 30 mg NAC, mean ± S.E.M, n=6. On the procedure: as §1
(§4) During the long testicular torsion, oxidation damage affects the testis by the production of the reactive oxygen species (ROS). Excessive generation of the ROS interacts with lipids, proteins, and nucleic acids, which has an adverse effect on cell function and damage. The testis has high cell metabolism such that excessive ROS production weakens antioxidant capacity. Malondialdehyde (MDA) is the end product of lipid peroxidation and increased MDA level has an adverse effect on sperm fertility. Furthermore, total antioxidant capacity (TAC) is the measure of the number of free radicals scavenged by a test solution, being used to evaluate the antioxidant capacity of biological samples [55]. The data collected in Table S3 (Supplementary Materials) have identified that there was a significant increase in testicular MDA with a significant decrease in testicular TAC in the I/R group as well as compounds 6d and 6f when compared to sham control and NAC groups. These findings indicate that both 6d and 6f are the worst antiapoptotic compounds compound amongst all the synthesized compounds.
TAC was assessed by the colorimetric technique using commercial kits (El-Minia, Egypt) (See Supplementary Materials). Testicular MDA, an index of lipid peroxidation, was determined by using 1,1,3,3-tetramethoxypropane as standard (See Supplementary Materials). […]
1.3.Determination of Total Antioxidant Capacity (Testicular tissue)
Free radicals or reactive oxygen species (ROS) are produced during biochemical redox reactions as part
of normal physiological cell metabolism (protection from infectious organisms) and as a response to
environmental factors such as UV light, cigarette smoke, environmental pollutants, and g-radiation. Once
formed, ROS attack cellular components causing damage to lipids, proteins, and DNA which can initiate
Antioxidants in the sample reduce dark blue-green colored ABTS radical to colorless reduced ABTS
form. The change of absorbance at 660 nm is related with total antioxidant level of the sample. The assay
is calibrated with a stable antioxidant standard solution which is traditionally named as Trolox
Equivalent that is a vitamin E analog.
The determination of the antioxidative capacity is performed by the reaction of antioxidants in the
sample with a defined amount of exogenously provide hydrogen peroxide (H2O2) The antioxidants in the
sample eliminate a certain amount of the provided hydrogen peroxide. The residual H2O2 is determined
(1 picture or pasted object on this page, not shown here)
colorimetrically by an enzymatic reaction which involves the conversion of 3,5,dichloro–2–hydroxy
benzensulphonate to a colored product.
* Dilute R11000 times immediately before use (10 μl R1 + 10 ml d. Water mix Discard after use.
*Working Reagent: mix equal volumes of R2 and R3 immediately before use.
*Dilute sample if necessary
Total Antioxidant concentration […]

For data set [3], the system named is testis of I/R rats. The data set is described as follows: Testicular MDA in testis of I/R rats. The settings on record: i.p. 1 h before ischemia, dose equivalent to 30 mg NAC, mean ± S.E.M, n=6. The class given is in vivo. On the procedure:
as §1, §4
TAC was assessed by the colorimetric technique using commercial kits (El-Minia, Egypt) (See Supplementary Materials). Testicular MDA, an index of lipid peroxidation, was determined by using 1,1,3,3-tetramethoxypropane as standard (See Supplementary Materials).

The test system of data set [4] is testis of I/R rats. The experiment in a line: Testicular testosterone in testis of I/R rats (ELISA). Type of data set: in vivo. Details: unit not given here. Particulars: i.p. 1 h before ischemia, dose equivalent to 30 mg NAC, mean ± S.E.M, n=6. As for the experimental part:
as §1, §3, §2
1.2.Determination of serum testosterone using ELISA kit
This ELISA kit uses the Competitive-ELISA principle. The micro ELISA plate provided in this kit has been pre-coated with T. During the reaction, T in the sample or standard competes with a fixed amount of T on the solid phase supporter for sites on the Biotinylated Detection Ab specific to T. Excess conjugate and unbound sample or standard are washed from the plate, and Avidin conjugated to Horseradish Peroxidase (HRP) are added to each microplate well and incubated. Then a TMB substrate solution is added to each well. The enzyme-substrate reaction is terminated by the addition of stop solution and the color change is measured spectrophotometrically at a wavelength of 450 nm ± 2 nm. The concentration of T in the samples is then determined by comparing the OD of the samples to the standard […]
Serum: Allow samples to clot for 2 hours at room temperature or overnight at 4℃ before centrifugation for 20 min at 1000×g at 2-8℃. Collect the supernatant to carry out the assay. Blood collection tubes should be disposable and be non-endotoxin. […]
1. Bring all reagents to room temperature (18~25℃) before use. Follow the Microplate reader manual for set-up and preheat it for 15 min before OD measurement.
2. Wash Buffer: Dilute 30 mL of Concentrated Wash Buffer with 720 mL of deionized or distilled water to prepare 750 mL of Wash Buffer. Note: if crystals have formed in the concentrate, warm it in a 40℃ water-bath and mix it gently until the crystals have completely dissolved.
3. Standard working solution: Centrifuge the standard at 10,000×g for 1min. Add 1.0mL of Reference Standard &Sample Diluent, let it stand for 10min and invert it gently several times. After it dissolves fully, mix it thoroughly with a pipette. This reconstitution produces a working solution of 20 ng/mL. Then make serial dilutions as needed. The recommended dilution gradient is as […]
Dilution method: Take 7 EP tubes, add 500uL of Reference Standard & Sample Diluent to each tube. Pipette 500uL of the 20 ng/mL working solution to the first tube and mix up to produce a 10 ng/mL working solution. Pipette 500uL of the solution from the former tube to the latter one according to this step. The illustration below is for reference. Note: the last tube is regarded as a blank. Don’t pipette solution into it from the former tube.

One may read the melting point as the temperature, or range, at which the solid turns liquid. The compound `O=c1cc(OCc2cn(-c3cc(=O)[nH]c4ccccc34)nn2)c2ccccc2[nH]1` [6a, 4-((1-(2-Oxo-1,2-dihydroquinolin-4-yl)-1H-1,2,3-triazol-4-yl)methoxy)quinolin-2(1H)-one] showed a melting point of 300 to 302 °C. The same compound displayed a Caspase-3 level in the data set with caspase-3 of 2.66 ± 0.21 ng/mL. Further, the TNF-α in the data set with testis of I/R rats [1] stood at 106.40 ± 4.44 pg/mL. The “Testicular TAC” value in the data set with testis of I/R rats [2] is recorded as 5.48±0.41 mmol/g tissue. For the same compound, in the data set on testis of I/R rats [3], the “Testicular MDA” value was found to be 62.38±4.23 nmol/g tissue. Besides, in the data set on testis of I/R rats [4], the Testicular testosterone was found to be 4.93±0.38.
Turning to `Cc1ccc2[nH]c(=O)cc(-n3cc(COc4cc(=O)[nH]c5ccccc45)nn3)c2c1` [6b, 6-Methyl-4-(4-(((2-oxo-1,2-dihydroquinolin-4-yl)oxy)methyl)-1H-1,2,3-triazol-1-yl)quinolin-2(1H)-one], the melting point came out at 298 °C. In the data set on caspase-3, this compound displayed a Caspase-3 level of 2.94 ± 0.28 ng/mL. Besides, the TNF-α in the data set with testis of I/R rats [1] was determined as 107.90 ± 2.96 pg/mL. In the data set with testis of I/R rats [2], the “Testicular TAC” value was determined as 4.62±0.33 mmol/g tissue. Further, the “Testicular MDA” value in the data set with testis of I/R rats [3] turned out to be 61.84±4.77 nmol/g tissue. In addition, the Testicular testosterone with testis of I/R rats [4] came to 5.07±0.45.

Values taken from PMC7672604, “Design, Synthesis, Molecular Docking, Antiapoptotic and Caspase-3 Inhibition of New 1,2,3-Triazole/Bis-2(1H)-Quinolinone Hybrids” (Molecules, 2020).
